# According to patent US20220071961A1, “Dosing Regimen of Bicyclic Substituted Pyrazolone Azo Derivative” (Jiangsu Hengrui Medicine CO., LTD., priority 2019, published 2022):
# Read-outs that look alike come from different tables or passages of the source.
# Test: Effect of different intervals between administration and a meal on pharmacokinetic parameters (three-period crossover, single oral dose)
# Type: in vivo, human
# Settings: single oral 7.5 mg; for AUC(0-t) / AUC / Cmax / MRT / Tmax / Vd/F / half-life: male, human, plasma, po, 7.5 mg; for MRT: read-out: MRT Geomean (% CVb); for Tmax: read-out: Tmax Median; for Vd/F: read-out: Vz/F Geomean (% CVb)
# Description: Embodiment 1: Study on an effect of different intervals between the administration and a meal on pharmacokinetic parameters of a compound represented by Formula I
# Diethanolamine salt tablets of the compound represented by Formula I, with specifications of 2.5 mg/table and 5 mg/tablet.
# 15 healthy adult male subjects were recruited for the trial. They were randomly divided into three trial groups which correspond to three dosing sequences, i.e. ABC, BCA and CAB. A cleaning period is 10 days.
# Group A: every subject orally took the test products (one T1: 2.5 mg/tablet and one T2: 5 mg/tablet) once on an empty stomach with 240 mL of room temperature water on the morning of the test. […] They were not allowed to drink water within 1 h before administration and 1 h after administration, but were allowed to drink water as needed for the rest time.
# (§1) Group B: every subject orally took the test products (one T1: 2.5 mg/tablet and one T2: 5 mg/tablet) once on an empty stomach with 240 mL of room temperature water on the morning of the test. They ate high-fat and high-calorie standard meals 1 h after administration, needed to stagger the timing of the breakfast and the blood sampling, and needed to finish the breakfast within 30 min. They were not allowed to drink water within 1 h before administration and 1 h after administration, but were allowed to drink water as needed for the rest time.
# as §1, with “Group C:” for “Group B:”, “meals 2” for “meals 1”
# The high-fat meal: calories: 800 to 1,000 kcal, composed of 150 kcal of protein, 250 kcal of carbohydrates and 500 to 600 kcal of fats, wherein about 50% of the calories come from the fats. The ingredients and proportions of the standard meals needed to be consistent in each test period. The specific administration sequences are shown in a table below. An effect of food on the medicine was analyzed by sampling blood at fixed time points before and after administration and measuring vital signs.
# In the test, there were Group A (without a breakfast after administration), Group B (with a high-fat and high-calorie standard meal 1 h after administration) and Group C (with a high-fat and high-calorie standard meal 2 h after administration) which correspond to threes administration sequences, i.e. ABC, BCA and CAB. A non-compartmental model (NCA) of WinNonlin 7.0 version was used to calculate PK parameters according to the actual sampling time, and software of SAS 9.4 version was used to list and make descriptive statistical analysis on the PK parameters. Results of descriptive statistical analysis of the PK parameters of the compound represented by Formula I of the subjects in the groups (Group A, Group B and Group C) with different intervals between the administration and a meal are shown in Table 2.
# A mixed-effects model was used to perform analysis of variance (ANOVA) on the PK parameters (Cmax, AUC0-t and AUC0-τ), which are subjected to natural log conversion, of the subjects in the groups with different intervals between administration and a meal by using the software of SAS 9.4 version.
# [1] = Group B vs Group A (meal 1 h after administration vs no food)
# [2] = Group B vs Group C (meal 1 h vs meal 2 h after administration)
# [3] = Group C vs Group A (meal 2 h after administration vs no food)
# [4] = food 1 h after administration relative to food 2 h after administration
# [5] = food 1 h after administration relative to no food after administration
# [6] = food 2 h after administration relative to no food after administration
# [7] = Group A, without a breakfast after administration, N = 15
# [8] = Group B, high-fat meal 1 h after administration, N = 14
# [9] = Group C, high-fat meal 2 h after administration, N = 14
smiles,measurement,setting,value
CC1=NN(c2ccc3c(c2)CCCC3)C(=O)/C1=N\Nc1cccc(-c2ccc(C(=O)O)o2)c1O [compound represented by Formula I],AUC0-t GeoLSM Ratio,[1],23.65%
same,AUC0-ē GeoLSM Ratio,[1],25.37%
same,Cmax GeoLSM Ratio,[1],44.01%
same,AUC0-t GeoLSM Ratio,[2],66.10%
same,AUC0-ē GeoLSM Ratio,[2],65.76%
same,Cmax GeoLSM Ratio,[2],78.12%
same,AUC0-t GeoLSM Ratio,[3],35.78%
same,AUC0-ē GeoLSM Ratio,[3],38.57%
same,Cmax GeoLSM Ratio,[3],56.33%
same,AUC0-τ reduced by,[4],~34%
same,Cmax reduced by,[4],about 22%
same,AUC0-τ reduced by,[5],~75%
same,Cmax reduced by,[5],about 56%
same,AUC0-τ reduced by,[6],~61%
same,Cmax reduced by,[6],about 44%
same,AUC(0-t),"Group A, no food after administration, n 15, mixed-effects ANOVA, read-out: AUC0-t GeoLSM (geometric least squares mean)",0.857 µg·h/mL
same,AUC,"Group A, no food after administration, n 15, mixed-effects ANOVA, read-out: AUC0-ē GeoLSM (geometric least squares mean)",0.929 µg·h/mL
same,Cmax,"Group A, no food after administration, n 15, mixed-effects ANOVA, read-out: Cmax GeoLSM (geometric least squares mean)",0.0351 µg/mL
same,AUC(0-t),"Group A, without a breakfast after administration, N = 15, read-out: AUC0-t Geomean (% CVb)",0.857 µg·h/mL
same,AUC(0-t),"Group A, without a breakfast after administration, N = 15, read-out: AUC0-t Mean SD",1.04 µg·h/mL
same,AUC,"Group A, without a breakfast after administration, N = 15, read-out: AUC0-ē Geomean (% CVb)",0.929 µg·h/mL
same,AUC,"Group A, without a breakfast after administration, N = 15, read-out: AUC0-ē Mean SD",1.11 µg·h/mL
same,Cmax,"Group A, without a breakfast after administration, N = 15, read-out: Cmax Geomean (% CVb)",0.0351 µg/mL
same,Cmax,"Group A, without a breakfast after administration, N = 15, read-out: Cmax Mean SD",0.0392 µg/mL
same,MRT,[7],32.1 h
same,Tmax,[7],7 h
same,Vd/F,[7],308 L
same,half-life,"Group A, without a breakfast after administration, N = 15, read-out: t1/2 Geomean (% CVb) (converted)",26.4 h
same,half-life,"Group A, without a breakfast after administration, N = 15, read-out: t1/2 Mean SD (converted)",29.3 h
same,Tmax,"Group B, high-fat and high-calorie standard meal 1 h after administration, N = 14",2 h
same,AUC(0-t),"Group B, high-fat meal 1 h after administration, N = 14, read-out: AUC0-t Geomean (% CVb)",0.202 µg·h/mL
same,AUC(0-t),"Group B, high-fat meal 1 h after administration, N = 14, read-out: AUC0-t Mean SD",0.314 µg·h/mL
same,AUC,"Group B, high-fat meal 1 h after administration, N = 14, read-out: AUC0-ē Geomean (% CVb)",0.235 µg·h/mL
same,AUC,"Group B, high-fat meal 1 h after administration, N = 14, read-out: AUC0-ē Mean SD",0.347 µg·h/mL
same,Cmax,"Group B, high-fat meal 1 h after administration, N = 14, read-out: Cmax Geomean (% CVb)",0.0154 µg/mL
same,Cmax,"Group B, high-fat meal 1 h after administration, N = 14, read-out: Cmax Mean SD",0.0211 µg/mL
same,MRT,[8],17.4 h
same,Vd/F,[8],531 L
same,half-life,"Group B, high-fat meal 1 h after administration, N = 14, read-out: t1/2 Geomean (% CVb) (converted)",11.6 h
same,half-life,"Group B, high-fat meal 1 h after administration, N = 14, read-out: t1/2 Mean SD (converted)",13.1 h
same,AUC(0-t),"Group B, meal 1 h after administration, n 14, mixed-effects ANOVA, read-out: AUC0-t GeoLSM (geometric least squares mean)",0.203 µg·h/mL
same,AUC,"Group B, meal 1 h after administration, n 14, mixed-effects ANOVA, read-out: AUC0-ē GeoLSM (geometric least squares mean)",0.236 µg·h/mL
same,Cmax,"Group B, meal 1 h after administration, n 14, mixed-effects ANOVA, read-out: Cmax GeoLSM (geometric least squares mean)",0.0155 µg/mL
same,Tmax,"Group C, high-fat and high-calorie standard meal 2 h after administration, N = 14",5.01 h
same,AUC(0-t),"Group C, high-fat meal 2 h after administration, N = 14, read-out: AUC0-t Geomean (% CVb)",0.303 µg·h/mL
same,AUC(0-t),"Group C, high-fat meal 2 h after administration, N = 14, read-out: AUC0-t Mean SD",0.547 µg·h/mL
same,AUC,"Group C, high-fat meal 2 h after administration, N = 14, read-out: AUC0-ē Geomean (% CVb)",0.355 µg·h/mL
same,AUC,"Group C, high-fat meal 2 h after administration, N = 14, read-out: AUC0-ē Mean SD",0.591 µg·h/mL
same,Cmax,"Group C, high-fat meal 2 h after administration, N = 14, read-out: Cmax Geomean (% CVb)",0.0196 µg/mL
same,Cmax,"Group C, high-fat meal 2 h after administration, N = 14, read-out: Cmax Mean SD",0.0286 µg/mL
same,MRT,[9],21.4 h
same,Vd/F,[9],460 L
same,half-life,"Group C, high-fat meal 2 h after administration, N = 14, read-out: t1/2 Geomean (% CVb) (converted)",15.1 h
same,half-life,"Group C, high-fat meal 2 h after administration, N = 14, read-out: t1/2 Mean SD (converted)",18.6 h
same,AUC(0-t),"Group C, meal 2 h after administration, n 14, mixed-effects ANOVA, read-out: AUC0-t GeoLSM (geometric least squares mean)",0.307 µg·h/mL
same,AUC,"Group C, meal 2 h after administration, n 14, mixed-effects ANOVA, read-out: AUC0-ē GeoLSM (geometric least squares mean)",0.358 µg·h/mL
same,Cmax,"Group C, meal 2 h after administration, n 14, mixed-effects ANOVA, read-out: Cmax GeoLSM (geometric least squares mean)",0.0198 µg/mL
same,% AUCex Geomean (% CVb),[7],6.62%
same,CL/F Geomean (% CVb),[7],8.0740 L/h
same,CL/F Mean SD,[7],10.4506 L/h
same,≅z Geomean (% CVb),[7],0.0263 h⁻¹
same,% AUCex Geomean (% CVb),[8],11.39%
same,CL/F Geomean (% CVb),[8],31.8657 L/h
same,CL/F Mean SD,[8],52.4396 L/h
same,≅z Geomean (% CVb),[8],0.0600 h⁻¹
same,% AUCex Geomean (% CVb),[9],10.57%
same,CL/F Geomean (% CVb),[9],21.1107 L/h
same,CL/F Mean SD,[9],42.1126 L/h
same,≅z Geomean (% CVb),[9],0.0459 h⁻¹
